From PMC12756723, “Derivatives of the Cashew Nut Shell Liquid as Ligands of Pseudomonas aeruginosa Phenazine Protein D (PaPhzD)” (ACS Omega, 2025)
“Also recorded” adds a separate entry of the source.

Key:
PaPhzD-FITC = biological target: T1, PaPhzD-FITC (Pseudomonas aeruginosa, UniProt P0DPB9); experiment: Fluorescence binding assay with FITC-labeled PaPhzD; conditions: 0.32 μM FITC-labeled PaPhzD, 25 °C, 3-parameter fit; read-out: Kd
T1 construct: inferred from Ni-NTA purification with imidazole elution; made in house; host or cells: E. coli BL21(DE3)
Procedure: PaPhzD (2.1 mg/mL) was incubated with 6 mg/mL fluorescein isothiocyanate (FITC) (Sigma-Aldrich 46950) (1:1) for 2 h at 25 °C. Next, the reaction mixture was eluted on a Hi-Trap HP desalting column (GE Healthcare) with 2 CV of 50 mM HEPES buffer (pH 8.0). The collected fractions were quantified at two different wavelengths (280 and 495 nm), and the molar ratio (Abs495/Abs280) ranging from 0.3 to 1.0 was employed for K d calculation experiments.
Subsequently, the fluorescence intensity of 0.32 μM of FITC-labeled PaPhzD was measured on a real-time thermocycler (Applied Biosystems 7500) equipped with the filter FAN (excitation wavelength: 498 nm; emission wavelength: 530 nm) for 10 min in the presence of different concentrations of each LDT compound (ranging 0.7–100 μM), previously diluted in DMSO.
The fluorescence raw data were recorded using Applied Biosystems 7500 Software v2.0, then exported to GraphPad Prism version 9.0 software to build fluorescence intensity × concentration plots and calculate K d values of the ligands by the nonlinear regression method (3-parameter fit). All experiments were carried out in triplicate using a 96-well PCR plate, manually sealed with transparent capping strips (Flatcap strips, BioRadVR).

[1] = system: P. aeruginosa cells (ATCC 27853); experiment: Screening of PYO production inhibitors (supernatant absorbance 691 nm); type: cell-based, Pseudomonas aeruginosa; conditions: 100 μM
Procedure: P. aeruginosa cells (ATCC 27853) were inoculated by depletion on King’s A agar, and the plates were incubated at 30 °C for 24 h. Isolated colonies were collected and resuspended in sterile saline solution (0.85%) until turbidity equivalent to optical density (OD) at 600 nm, equal to 0.3 (1.5 × 10^8 CFU/mL). This bacterial suspension was diluted 10-fold and used to inoculate King’s A broth.
(§1) The potential inhibitors, previously solubilized in DMSO, were added to the culture medium after the inoculation (final concentration = 100 μM). The control group was cultured in the presence of an equivalent volume of DMSO but without the presence of potential inhibitors. The cell suspension was maintained at 30 °C under constant agitation (180 rpm) for 24 h in a 24-well plate. After this period, the OD600 was measured to evaluate bacterial growth, and in parallel, after being subjected to centrifugation, the supernatant was read in a 96-well plate at a wavelength of 691 nm. The sterile medium used for culturing the microorganism was used as a positive control, and culture medium containing 1% DMSO was used as a negative control.

[2] = system: P. aeruginosa cells (ATCC 27853); experiment: Bacterial growth (OD600) in the PYO screening culture; type: cell-based, Pseudomonas aeruginosa; conditions: 100 μM
Procedure: as §1

P. aeruginosa PA14 [3] = experiment: Biofilm assay (crystal violet); type: cell-based, Pseudomonas aeruginosa; conditions: 100 μM, vs DMSO control
Procedure: Exponential phase cultures of P. aeruginosa PA14 were diluted to 5 × 10^5 colony forming units (CFU) in 48-well plates with LB containing each compound (1, 3, and 5) at 100 μM final concentrations or 0.1% DMSO (v/v) as a negative control. The plate was incubated steadily at 30 °C for 20 h inside a plastic bag to avoid evaporation. After the incubation, the OD600 of each well was measured in a plate reader (SpectraMax Paradigm). The planktonic bacteria were removed by turning the plate over the waste, followed by three steps of washing with distilled water. After drying, a solution of 1% crystal violet was added to each well and incubated at room temperature for 30 min to stain the attached cells forming a ring at the air–liquid interface. The crystal violet solution was removed, and the plate was washed using the same procedure. The dye was solubilized with 30% acetic acid for 30 min at room temperature. The Abs550 was measured, and the value was divided by the OD600 for each well. A total of 24 replicates were made for each treatment (6 wells per plate, four plates)

P. aeruginosa PA14 [4] = experiment: Swarming assay; type: cell-based, Pseudomonas aeruginosa; conditions: 100 μM
Procedure: Swarming assays were performed as described, using 6-well plates. Briefly, 3 μL of culture (OD600 = 3.0) was inoculated in the center of modified M9 (20 mM NH4Cl; 12 mM Na2HPO4; 22 mM KH2PO4; 8.6 mM NaCl; 1 mM MgSO4; 1 mM CaCl2 2 H2O; 11 mM glucose; 0.5% casamino acids (Difco)) with 0.5% of Bacto-agar (Difco), containing the respective compounds (100 μM final concentration, diluted in DMSO). Plates were incubated inside plastic bags to avoid evaporation at 30 °C for 16 h. After this period, pictures were taken, and the area covered by the colonies was measured using ImageJ. All assays were performed with four replicates, and 0.1% DMSO (v/v) was employed as a negative control.

P. aeruginosa = experiment: Colony morphology in medium containing compounds; type: cell-based, Pseudomonas aeruginosa; conditions: data not shown
phzA1-G1 = experiment: lacZ transcriptional fusion, phzA1-G1 operon; type: cell-based, Pseudomonas aeruginosa; conditions: late exponential phase
Procedure: P. aeruginosa harbors two identically structured operons in its genome, which encode most of the enzymes responsible for PYO synthesis (phzA1-G1 and phzA2-G2) but have slightly different regulatory regions 1. lacZ transcriptional fusions for each operon were assayed at mid-log and late exponential phases (OD=1 and 3, respectively). At mid-log cultures, the expression of both QS-regulated operons is extremely low, and it increases more than 1000-fold at late exponential phase for phzA1-G1 and 4-fold for phzA2-G2, as expected. Addition of compounds 2 and 4 had no effect for both operons in the late […]
synthesis is not related to inhibition at the transcriptional level.
Figure 7S: Effect of LDT10 (2) and LDT13 (3) on the phzA1-G1 (A) and phzA2-G2 […]
(1 picture or pasted object on this page, not shown here)

human PPAR isoforms = system: human PPAR isoforms; design: method as in Sahin et al. 2022 (likely, number not given); conditions: previously investigated; ref Sahin et al. 2022 (likely, number not given); cited from earlier work
KinA/SPOOF = system: KinA/SPOOF; design: method as in Kanojia et al.; conditions: KinA/SPOOF from B. subtilis; ref Kanojia et al.; cited from earlier work

T1 sequence (P0DPB9 whole entry): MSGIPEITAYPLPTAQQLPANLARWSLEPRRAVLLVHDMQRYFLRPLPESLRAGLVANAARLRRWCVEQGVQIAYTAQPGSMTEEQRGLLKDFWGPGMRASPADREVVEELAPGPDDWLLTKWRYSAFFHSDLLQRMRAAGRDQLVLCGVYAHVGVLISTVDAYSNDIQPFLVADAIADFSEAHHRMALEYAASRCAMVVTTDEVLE

Compound: CCCCCCCCCCCCCCCc1cccc(O)c1 [Compound 2]
- Kd (PaPhzD-FITC): 2800 nM
- Pyocyanin production, Cohen's d vs control ([1]; 24 h, 30 °C): −2.56
- Effect on pyocyanin production ([1]; vs DMSO control): decreased pyocyanin production
- Effect on bacterial growth [2]: without affecting bacterial growth; also recorded: no significant effect on bacterial growth
- Effect on biofilm formation (P. aeruginosa PA14 [3]): without affecting bacterial growth or biofilm formation; also recorded: not significantly different the control
- Swarming motility, % compared to control conditions (P. aeruginosa PA14 [4]): 65%
- Swarming motility, Cohen's d vs control (P. aeruginosa PA14 [4]): −0.91
- Effect on colony morphology (P. aeruginosa): No effects on colony morphology
- Effect on phzA1-G1 transcription (phzA1-G1): no effect
- PPAR activity profile (human PPAR isoforms): do not activate PPAR receptors
- IC50 (KinA/SPOOF): > 500000 nM
